Laboratory results published in patent publication US5736548A, “6-aryl pyrazolo[3,4-D] pyrimidin-4-ones and compositions and method of use thereof” (Sanofi, priority 1997, dated 1998).
pIC50: −log10 of the molar value. Where “and” joins values, the source holds several entries; their conditions need not be identical. Identical values can stand only once.

Tests used:
[1] = system: nitroglycerin tolerant spontaneously hypertensive rats; assay: Reversal of nitroglycerin-induced tolerance in spontaneously hypertensive rats; type: in vivo; conditions: for Percent (%) Reversal of Nitroglycerin-induced Tolerance: intravenously 5-10 minutes prior to nitroglycerin challenge
Protocol: Spontaneously hypertensive rats (17-25 weeks of age) were made nitroglycerin tolerant by repeated administration of high doses of nitroglycerin (100 mg/kg, s.c., 3 times/day for 3 consecutive days). To confirm tolerance challenge doses of nitroglycerin were administered intravenously at doses ranging from 1-300 μg/kg and the maximum change in mean arterial pressure (MAP) for each dose was recorded. Groups of tolerant rats were pretreated with the compounds of the invention (tolerant pretreated group) or with vehicle (0.05N NaOH) (tolerant vehicle pretreated group) intravenously 5-10 minutes prior to administration of challenge doses of nitroglycerin. The administration of challenge doses of nitroglycerin to non-tolerant rats (the non-tolerant group) caused a dose-dependent decrease in MAP of between 10 to 40 mm Hg. […] The area under the dose-MAP curve was calculated for the non-tolerant group and for the tolerant vehicle pretreated group and the tolerant pretreated group. The percent reversal of nitrate-inducedtolerance was calculated as follows:
Percent Reversal=(AUCtol -pretreated-AUCtol-veh)/(AUCnontol
AUCnontol =the area under the dose-MAP curve for the non-tolerant group.
AUCtol-veh =the area under the dose-MAP curve for the tolerant vehicle pretreated group.
AUCtol-pretreated =the area under the dose-MAP curve for the tolerant pretreated group.
The following table summarizes the results obtained from the testing of representative compounds of the invention.

cGMP-PDE V = cGMP-PDE V (Homo sapiens, UniProt O76074); assay: biochemical; set-up: species or system various animal species and man; conditions: values separated by / and marked * are separate experimental runs
Protocol: The cGMP-PDE and other PDE isozymes were isolated from cardiovascular tissues (heart and aorta) of various animal species and man by anion-exchange and affinity chromatography as described by Silver et al., Sec. Messeng. Phos. 13:13-25, 1991; PDE activity, in the presence and absence of test compounds was determined essentially as described by Thompson et al., Adv. Cyclic Nucleotide Res. 10:69-92. To determine the potency and selectivity of compounds as PDE inhibitors, compounds are screened for their effect on cyclic nucleotide hydrolysis at 10 μM. […] The IC50 values are calculated from concentration-response curves as described by Tallarida and Murray, Manual of Pharmacologic Calculations with Computer Programs, Procedure 8, Graded Dose-response, pp. 14-19, Springer-Verlag, New York, 1981.

[2] = system: Spontaneously hypertensive rats (SHR); assay: Antihypertensive activity in conscious spontaneously hypertensive rats (mean arterial pressure); type: in vivo; conditions: Rattus norvegicus, 5 min, SHR iv
Protocol: After a 2 day recovery from surgery, three baseline blood pressure measurements were made at 5 min intervals in conscious SHR. Compounds to be tested or vehicle were then administered intravenously in a dose-dependent manner (0.3-10 mg base/kg) while arterial pressure was recorded continuously on a polygraph. The mean arterial pressure response was measured 5 minutes after the administration of each dose of the test compound and the next dose given in a cumulative dose fashion. The response to each dose of the test compound was calculated as the difference from the mean of the three baseline measurements.

[3] = system: Spontaneously hypertensive rats (SHR); assay: as above; type: in vivo; conditions: Rattus norvegicus, 5 min, po

CCCOc1ccccc1-c1nc2n(C3CCCC3)[nH]c(CC)c-2c(=O)n1 [Example 6, 1-cyclopentyl-3-ethyl-6-(2-propoxyphenyl)-pyrazolo[3,4-d]pyrimidin-4-one]
Percent (%) Reversal of Nitroglycerin-induced Tolerance ([1]; 1.0 mg/kg): 49%
pIC50 (cGMP-PDE V): 8.80
change in vivo at 10 mg/kg ([2]; 5 minutes after dose): -1%

O=[N+]([O-])OCC(CO[N+](=O)[O-])O[N+](=O)[O-] [nitroglycerin, reference compound]
hypotensive response to nitroglycerin challenge, tolerant vehicle pretreated group (in words) ([1]; tolerant rats, vehicle pretreated, nitroglycerin 1-300 μg/kg iv): significant reduction of the hypotensive response

CCc1nn(C2CCCC2)c2nc(-c3ccc(OCCN4CCOCC4)c(OCCN4CCOCC4)c3)[nH]c(=O)c12 [25 (b), 1-cyclopentyl-3-ethyl-6-[3,4-[2-(4-morpholinyl)ethoxy]phenyl]pyrazolo[3,4-d]pyrimidin-4-one]
change in vivo at 10 mg/kg ([3]; 10 mg/kg): -18%
pIC50 (cGMP-PDE V): 7.85 and 7.29
ED25 [2]: 4.5 mg/kg
change in vivo at 1 mg/kg ([2]; 5 minutes after dose): -18%
change in vivo at 3 mg/kg ([2]; 5 minutes after dose): -27%
change in vivo at 10 mg/kg ([2]; 5 minutes after dose): -38%

CCc1nn(C2CCCC2)c2nc(-c3ccc(-n4ccnc4)cc3)[nH]c(=O)c12 [8 (a), 1-cyclopentyl-3-ethyl-6-[4-(1-imidazolyl)phenyl]-pyrazolo-[3,4-d] pyrimidin-4-one 1/2 hydrate]
Percent (%) Reversal of Nitroglycerin-induced Tolerance ([1]; 0.3 mg/kg): 5%
change in vivo at 30 mg/kg [3]: -81%
pIC50 (cGMP-PDE V): 6.39 and 6.37
ED25 [2]: 5.7 mg/kg
change in vivo at 3 mg/kg ([2]; 5 minutes after dose): -20%
change in vivo at 10 mg/kg ([2]; 5 minutes after dose): -35%

CCOc1ccccc1-c1nc2n(C3CCCC3)[nH]c(CC)c-2c(=O)n1 [Example 4, 1-cyclopentyl-3-ethyl-6-(2-ethoxyphenyl)-pyrazolo[3,4-d]pyrimidin-4-one]
pIC50 (cGMP-PDE V): 8.24
change in vivo at 10 mg/kg ([2]; 5 minutes after dose): -13%

CCc1[nH]n(C2CCCC2)c2nc(-c3ccccc3OC)nc(=O)c1-2 [Example 5, 1-cyclopentyl-3-ethyl-6-(2-methoxyphenyl)-pyrazolo[3,4-d]pyrimidin-4-one]
pIC50 (cGMP-PDE V): 7.06
change in vivo at 1 mg/kg ([2]; 5 minutes after dose): -8%

CCc1[nH]n(C2CCCC2)c2nc(-c3cccc(OCCN4CCCCC4)c3)nc(=O)c1-2 [19 (b), 1-cyclopentyl-3-ethyl-6-[3-[2-(1-piperidinyl)ethoxy]phenyl]pyrazolo[3,4-d]pyrimidin-4-one]
pIC50 (cGMP-PDE V): 7.14
ED25 [2]: 12.5 mg/kg
change in vivo at 10 mg/kg ([2]; 5 minutes after dose): -19%

CCCOc1ccccc1-c1nc2n(C3CCCC3)[nH]c(C)c-2c(=O)n1 [1 (c), 1-cyclopentyl-3-methyl-6-(2-propoxyphenyl)-pyrazolo[3,4-d]pyrimidin-4-one]
pIC50 (cGMP-PDE V): 8.15 and 8.52
change in vivo at 1 mg/kg ([2]; 5 minutes after dose): -5%

C=CCOc1ccccc1-c1nc2c(c(CC)nn2C2CCCC2)c(=O)[nH]1 [9 (b), 1-cyclopentyl-3-ethyl-6-[2-(CH2 =CH--CH2 O)phenyl]pyrazolo[3,4-d]pyrimidin-4-one]
pIC50 (cGMP-PDE V): 8.31
change in vivo at 10 mg/kg ([2]; 5 minutes after dose): -19%

CCc1[nH]n(C2CCCC2)c2nc(-c3ccccc3C)nc(=O)c1-2 [Example 3, 1-cyclopentyl-3-ethyl-6-(2-methylphenyl)-pyrazolo[3,4-d]pyrimidin-4-one]
pIC50 (cGMP-PDE V): 6.70
change in vivo at 1 mg/kg ([2]; 5 minutes after dose): -7%

CCc1[nH]n(C2CCCC2)c2nc(-c3cccc(OCCN4CCOCC4)c3)nc(=O)c1-2 [13 (b), 1-cyclopentyl-3-ethyl-6-[3-[2-(4-morpholinyl)ethoxy]phenyl]-pyrazolo[3,4-d]pyrimidin-4-one]
Percent (%) Reversal of Nitroglycerin-induced Tolerance ([1]; 0.3 mg/kg): 58%
change in vivo at 30 mg/kg [3]: -58%
pIC50 (cGMP-PDE V): 6.97
ED25 [2]: 9.5 mg/kg
change in vivo at 0.3 mg/kg ([2]; 0.3 mg/kg, 5 minutes after dose): -11%
change in vivo at 1 mg/kg ([2]; 5 minutes after dose): -14%
change in vivo at 3 mg/kg ([2]; 5 minutes after dose): -19%

CCc1[nH]n(C2CCCC2)c2nc(-c3cccc(OCCN4CCCC4)c3)nc(=O)c1-2 [22 (b), 1-cyclopentyl-3-ethyl-6-[3-[2-(1-pyrrolidinyl)ethoxy]phenyl]pyrazolo[3,4-d]pyrimidin-4-one]
pIC50 (cGMP-PDE V): 6.85
ED25 [2]: 17.9 mg/kg
change in vivo at 10 mg/kg ([2]; 5 minutes after dose): -18%

CCc1[nH]n(C2CCCC2)c2nc(-c3cccc(OCC(=O)O)c3)nc(=O)c1-2 [Example 21, 1-cyclopentyl-3-ethyl-6-[3-(carboxymethoxy)phenyl]pyrazolo[3,4-d]pyrimidin-4-one]
pIC50 (cGMP-PDE V): 7.03
change in vivo at 10 mg/kg ([2]; 5 minutes after dose): -1%

CCc1[nH]n(C2CCCC2)c2nc(-c3cccc(-n4ccnc4)c3)nc(=O)c1-2 [24 (c), 1-cyclopentyl-3-ethyl-6-[3-(1-imidazolyl)phenyl]pyrazolo-[3,4-d]pyrimidin-4-one]
pIC50 (cGMP-PDE V): 6.89
ED25 [2]: 12.7 mg/kg
change in vivo at 3 mg/kg ([2]; 5 minutes after dose): -13%
change in vivo at 10 mg/kg ([2]; 5 minutes after dose): -21%
